Source: patent US20250235543A1, “MODIFIED PROTEINS AND PROTEIN DEGRADERS” (Cullgen (Shanghai), Inc., priority 2021, published 2025)

Assays:
[1] = tested on: cyclin D1, cyclin D2, cyclin D3, CDK4 and CDK6; experiment: Immunoblotting of cyclin D and CDK4/6 protein levels in BT-549 cells; format: cell-based; conditions: indicated concentrations, 16 hours
Method: (§1) Calu-1 (FIG. 2A) or BT-549 (FIG. 2B) cells were treated with CPD-002, CPD-004, or palbociclib at indicated concentrations for 16 hours.
(§2) Cultured cells were washed with cold PBS once and lysed in cold RIPA buffer supplemented with protease inhibitors and phosphatase inhibitors (Beyotime Biotechnology). The solutions were then incubated at 4° C. for 30 min with gentle agitation to fully lysed cells. Cell lysates were centrifuged at 13,000 rpm for 10 min at 4° C. and pellets were discarded. Total protein concentrations in the lysates were determined following BCA assays (Beyotime Biotechnology). Cell lysates were mixed with Laemmli loading buffer and heated at 99° C. for 5 min. Proteins were resolved on SDS-PAGE and visualized using Western ECL Substrate kits on a ChemiDoc MP Imaging system (Bio-Rad). Protein bands were quantitated using the Image Lab software provided by Bio-Rad.

[2] = tested on: MDA-MB-468; experiment: Cell viability assay, MDA-MB-468; format: cell-based; conditions: Homo sapiens, 72 h; MDA-MB-468, TNBC, 3 days; read-out: Cellular Anti-proliferation activity (IC50)
Method: Cells were treated with CDK4/6 inhibitors palbociclib, ribociclib, or abemaciclib, or heterobifunctional compounds CPD-002 or CPD-031 following a 9-point serial dilution for 3 days.
Cells were seeded at a density of 2,000-5,000 cells per well in 96-well assay plates and treated with test compounds following a 10-point serial dilution for 3-6 days. Cell viability was determined using the CellTiter-Lumi assay kit according to the manufacturer's instructions. The dose-response curves were determined and IC50 values were calculated using the GraphPad Prism software following a nonlinear regression (least squares fit) method. Data presented was mean±standard deviation (SD) unless otherwise indicated.

[3] = tested on: Rb phosphorylation, cleaved caspase-3; experiment: Immunoblotting of downstream Rb phosphorylation and cleaved caspase-3 in Calu-1 or BT-549 cells; format: cell-based; conditions: 16 hours
Method: as §1, §2

[4] = tested on: CDK4, CDK6; experiment: Immunoblot of CDK4 and CDK6 protein levels in Calu-1 cells; format: cell-based; conditions: 500 nM CPD-002
Method: Specific exemplary heterobifunctional compounds were characterized in Calu-1, BT-549 and other cells. Cells that express cyclin D1-3 and CDK4/6 proteins were treated with heterobifunctional compounds disclosed herein at indicated concentrations for 16 hours. Cells were collected, lysed and subject to immunoblotting using an antibody specific to cyclin D1, cyclin D2, cyclin D3, CDK4, CDK6 or phosphorylated R^b proteins. Tubulin or GAPDH was used as the loading control. DMSO treatment was used as the negative control.
In a time-course study, Calu-1 cells were treated with 500 nM CPD-002, or 100 nM CPD-031 for indicated period of time prior to immunoblotting (FIG. 4A-4B).
To verify that heterobifunctional compound-mediated degradation is dependent on the binding to CDK4-cyclin D complex, we designed three negative control compounds, CPD-042, CPD-049 and CPD-380, which are derived from CPD-002 CPD-031 and CPD-343, respectively. These three control compounds bear the same DDB1 ligand and linker as their corresponding active heterobifunctional compounds but with modified warheads to impair the binding of the control compounds to CDK4. […] Two cereblon (CRBN)-recruiting reference heterobifunctional compounds, CP-10 (Su, J Med Chem, 2019; CAS No.: 2366268-80-4) and BSJ-03-123 (Brand, Cell Chem Biol, 2019; CAS No.: 2361493-16-3) were analyzed in Calu-1 cells.

[5] = tested on: cyclin D1; experiment: Cyclin D1 degradation in parental and DDB1 knockout Hs578T cells; format: cell-based; conditions: dose range, 4 hours
Method: Parental and DDB1 knockout Hs578T cells were treated with a dose range of CPD-031 for 4 hours (FIG. 5C).
The procedures for CRISPR-Cas9 mediated knock-out followed the previously published protocols (Ran et al., 2013). The sgRNA targeting human DDB1 (sgRNA sequence: […]) (SEQ ID NO: 1) was designed using the online CRISPR Design Tool (chopchop.cbu.uib.no/), and constructed into CRISPR-Cas9 vector, pLentiCRISPR V2 (Addgene #52961). Lentivirus was produced in HEK293T cells by co-transfecting pLentiCRISPR construct with packing vectors. Hs578T cells stably expressing Cas9 enzyme and sgRNA were established by lentivirus transduction, selected, and maintained in medium containing […] puromycin.
as §2, with “Proteins were resolved on SDS-PAGE and visualized using Western ECL Substrate kits on a ChemiDoc MP Imaging system (Bio-Rad).” left out

[6] = target: T1, DDB1 (Homo sapiens, UniProt Q16531, D705G/DEL396-460/DEL463-701/I704S/T703N); experiment: Surface plasmon resonance (SPR) binding of heterobifunctional compounds to DDB1; conditions: purified DDB1ΔBPB immobilized on CM5 chip, multi-cycle kinetic format, steady state model, read-out: binding affinities (Kd) to DDB1
T1 construct: His6 (N, cleaved yes); TEV protease cleavage site (N, cleaved yes); made in house; host or cells: SF9 insect cells, Bac-to-Bac baculovirus, pFastBacHTB vector
T1 sequence (Q16531 other isoform, or with tags, fused parts or gaps DEL396-460/DEL463-701/T703N/I704S/D705G): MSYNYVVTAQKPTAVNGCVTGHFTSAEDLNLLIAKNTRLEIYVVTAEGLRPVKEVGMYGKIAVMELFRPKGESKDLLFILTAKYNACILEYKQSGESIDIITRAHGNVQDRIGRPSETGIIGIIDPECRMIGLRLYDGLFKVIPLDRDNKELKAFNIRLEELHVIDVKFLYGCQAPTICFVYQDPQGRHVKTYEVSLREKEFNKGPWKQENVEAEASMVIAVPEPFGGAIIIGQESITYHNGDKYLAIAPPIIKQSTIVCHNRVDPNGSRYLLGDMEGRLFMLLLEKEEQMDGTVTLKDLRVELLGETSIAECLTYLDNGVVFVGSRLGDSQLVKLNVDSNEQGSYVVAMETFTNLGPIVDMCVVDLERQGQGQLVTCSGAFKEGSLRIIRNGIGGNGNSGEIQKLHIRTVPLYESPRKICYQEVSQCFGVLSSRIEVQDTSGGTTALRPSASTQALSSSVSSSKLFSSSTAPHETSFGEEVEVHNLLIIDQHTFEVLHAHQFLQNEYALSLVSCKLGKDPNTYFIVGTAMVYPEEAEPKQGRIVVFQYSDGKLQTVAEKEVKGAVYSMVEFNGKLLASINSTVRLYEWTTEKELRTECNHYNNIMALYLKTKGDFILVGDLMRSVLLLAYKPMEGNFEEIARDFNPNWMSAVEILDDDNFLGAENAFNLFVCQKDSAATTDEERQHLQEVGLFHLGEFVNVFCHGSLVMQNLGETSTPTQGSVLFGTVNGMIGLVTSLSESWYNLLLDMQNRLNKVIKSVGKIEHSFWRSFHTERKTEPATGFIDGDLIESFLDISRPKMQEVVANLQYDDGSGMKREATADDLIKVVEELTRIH
Method: To determine whether the addition of linkers and target binders to the DDB1 ligands affected the binding to DDB1 E3 ligase, the binding affinities of heterobifunctional compounds to DDB1 was evaluated using a surface plasmon resonance (SPR) assay. Purified DDB1ΔBPB proteins were immobilized on a CM5 sensor chip and a dose range of compound solutions were injected in multi-cycle kinetic format. Data was fit to steady state model and gave equivalent dissociation constants (Kd).

[7] = tested on: cyclin D1; experiment: Immunoblot of cyclin D1 in parental or DDB1 knockout Hs578T cells; format: cell-based; conditions: parental vs DDB1 knockout Hs578T cells, 4 hours
Method: FIG. 5 show immunoblots of cyclin D1, cyclin D2 and cyclin D3 proteins expressed by Calu-1 cells after treatment with heterobifunctional compounds CPD-002 and CPD-004 (A), or CPD-031 (B) in the presence or absence of MLN4924 (MLN), MG-132 (MG), or TAK-243 (TAK), and immunoblots of cyclin D1 proteins expressed in parental or DDB1 knockout Hs578T cells after treatment with heterobifunctional compound CPD-031 at indicated concentrations for 4 hours (C).
The heterobifunctional compound-mediated degradation was dependent on the ubiquitin-proteasome system and cullin E3 ligase. […] In addition, DDB1 E3 ligase was critical for the degrader-induced cyclin D downregulation. Depletion of DDB1 using CRISPR-Cas9 technology attenuated the cyclin D degradation induced by CPD-031 (FIG. 5C).

| IC50 [2] [µM] | Kd [6] [µM] | SMILES | cyclin D1, cyclin D2, cyclin D3, CDK4 and CDK6 protein levels [1] | downstream Rb phosphorylation and cleaved caspase-3 [3] | degradation of CDK4 and CDK6 relative to cyclin D, time-course [4] | cyclin D1 degradation in DDB1 knockout versus parental cells [5] | cyclin D degradation after depletion of DDB1 (CRISPR-Cas9) [7] |
| --- | --- | --- | --- | --- | --- | --- | --- |
| 1.48 |  | CC(=O)c1c(C)c2cnc(Nc3ccc(N4CCN(CC(=O)NCCOCCOCCOCCOCCOCCNc5ccc(C(=O)Nc6ncc(C)s6)c(C)c5)CC4)cn3)nc2n(C2CCCC2)c1=O [CPD-002, 4-((1-(4-(6-((6-Acetyl-8-cyclopentyl-5-methyl-7-oxo-7,8-dihydropyrido[2,3-d]pyrimidin-2-yl)amino)pyridin-3-yl)piperazin-1-yl)-2-oxo-6,9,12,15,18-pentaoxa-3-azaicosan-20-yl)amino)-2-methyl-N-(5-methylthiazol-2-yl)benzamide] | reduced cyclin D1, cyclin D2, cyclin D3, CDK4 and CDK6 protein levels in a concentration-dependent manner | inhibited downstream Rb phosphorylation and induced cleaved caspase-3 in a concentration-dependent manner | occurred much slower |  |  |
|  | 5.7 | CC(=O)c1c(C)c2cnc(Nc3ccc(N4CCN(CC(=O)NCCOCCOCCOCCOCCOCCNc5ccc(C(=O)Nc6nc(C)c(C)s6)c(C)c5)CC4)cn3)nc2n(C2CCCC2)c1=O [CPD-031, 4-((1-(4-(6-((6-Acetyl-8-cyclopentyl-5-methyl-7-oxo-7,8-dihydropyrido[2,3-d]pyrimidin-2-yl)amino)pyridin-3-yl)piperazin-1-yl)-2-oxo-6,9,12,15,18-pentaoxa-3-azaicosan-20-yl)amino)-N-(4,5-dimethylthiazol-2-yl)-2-methylbenzamide] |  |  |  | partially compromised by depletion of DDB1 E3 ligase | attenuated |
